The text below walks through data of ChEMBL document CHEMBL3407458, “Design and synthesis of pyrazole-oxindole conjugates targeting tubulin polymerization as new anticancer agents” (Eur J Med Chem, 2015).

Usually IC50 stands for the midpoint of a concentration-inhibition curve.

Activity calls are given as the source filed them. No cut-off for these calls is given here.

The subject of one assay is A549. In words: Cytotoxicity against human A549 cells assessed as cell viability after 48 hrs by MTT assay. The format is functional, cell-based. Conditions: A549, 48 h. (Formazan colour is commonly taken as a measure of viable cells.)
Another assay concerns the target Tubulin (Bos taurus) (UniProt Q6B856+Q862L2+Q862F3). In words: Inhibition of bovine brain tubulin polymerization by fluorescence based tubulin polymerization assay.
Assay [1] concerns HeLa. The assay is described as follows: Cytotoxicity against human HeLa cells assessed as cell viability after 48 hrs by MTT assay. The format is functional, cell-based.
In another assay the test system is DU-145. The assay is described as follows: Cytotoxicity against human DU145 cells assessed as cell viability after 48 hrs by MTT assay. Conditions: DU-145, 48 h. It counts as functional, cell-based.
A further assay relates to MCF7. The assay is described as follows: Cytotoxicity against human MCF7 cells assessed as cell viability after 48 hrs by MTT assay. It counts as functional, cell-based. Conditions: MCF7, 48 h.
The species entered for another assay is Danio rerio. The assay is described as follows: Delay in development of wild type zebrafish embryo at 25 uM observed 28 hpf by stereomicroscopy. The format is functional, organism-based.
The test system of assay [2] is HeLa. The assay is described as follows: Antimitotic activity against human HeLa cells assessed as cells accumulation at G2/M phase at 5 uM after 24 hrs by Propidium iodide staining based FACS/flow cytometry (reference value: 17.68%). It counts as functional.
Assay [3] has as its system HeLa. In words: Antimicrotubule activity in human HeLa cells assessed as multipolar spindle fiber at 5 uM after 24 hrs. The format is functional, cell-based.
Assay [4] has as its system HeLa. In words: Antimitotic activity against human HeLa cells assessed as cells accumulation at G2/M phase at 10 uM after 24 hrs by Propidium iodide staining based FACS/flow cytometry (reference value: 17.68%). The format is functional. A general note: Flow cytometry measures light scatter and fluorescence of single cells or particles in a stream.
In assay [5] the test system is HeLa. The assay is described as follows: Antimicrotubule activity in human HeLa cells assessed as metaphase arrest at 5 uM after 24 hrs by immunohistochemistry. It counts as functional, cell-based.

Consider `COc1ccc2c(c1)/C(=C/c1cc(-c3ccc(OC)c(OC)c3)n[nH]1)C(=O)N2`, for which the IC50 in the assay on A549 is 15 µM; in the assay on HeLa [1] it was 13 µM; in the assay with DU-145 it was 34 µM; with MCF7 it was 32 µM. In addition, the INH on Tubulin (Bos taurus) amounted to 22.1 µM.
On to `COc1ccc(-c2cc(/C=C3\C(=O)Nc4cc(Cl)ccc43)[nH]n2)cc1OC`, for which the IC50 in the assay on A549 worked out at 18 µM; in the assay on HeLa [1], 11 µM; in the assay on DU-145 it was 13.9 µM; with MCF7, 27 µM. Also, at Tubulin (Bos taurus), the INH worked out at 18.9 µM.
Take `O=C1Nc2ccc([N+](=O)[O-])cc2/C1=C/c1cc(-c2ccc3c(c2)OCO3)n[nH]1`: the IC50 was found to be 37 µM with A549, 24 µM in the assay on HeLa [1], 36 µM in the assay on DU-145 and 17 µM with MCF7. Moreover, at Tubulin (Bos taurus), the INH was 14.7 µM.
For the compound `COc1ccc2c(c1)/C(=C/c1cc(-c3cc(OC)c(OC)c(OC)c3)n[nH]1)C(=O)N2`, the IC50 in the assay with A549 turned out to be 33 µM; in the assay with HeLa [1] it was 16 µM; with DU-145, 9.1 µM; in the assay on MCF7, 8.8 µM. Also, on Tubulin (Bos taurus), the INH came to 16 µM.
As for `COc1cc(-c2cc(/C=C3\C(=O)Nc4ccccc43)[nH]n2)cc(OC)c1OC`, the IC50 with A549 worked out at 21 µM; with HeLa [1], 21 µM; in the assay on DU-145, 35 µM; with MCF7, 27 µM. The compound further came in with an INH at Tubulin (Bos taurus) of 18 µM.
Take `COc1ccc(-c2cc(/C=C3\C(=O)Nc4ccc([N+](=O)[O-])cc43)[nH]n2)cc1OC`: the IC50 turned out to be 42 µM in the assay on A549, 36 µM in the assay on HeLa [1], 28 µM in the assay with DU-145 and 42 µM in the assay with MCF7. At Tubulin (Bos taurus), this compound registered an INH of 18 µM.
As to `COc1ccc(-c2cc(/C=C3\C(=O)Nc4ccc(Cl)cc43)[nH]n2)cc1OC`, the IC50 in the assay with A549 amounted to 24 µM; in the assay with HeLa [1], 10 µM; in the assay on DU-145, 21 µM; with MCF7 it was 16 µM. The same compound came in with an INH on Tubulin (Bos taurus) of 33.8 µM.
For `COc1ccc(-c2cc(/C=C3\C(=O)Nc4ccc(F)cc43)[nH]n2)cc1`, the IC50 in the assay with A549 was 29 µM; in the assay on HeLa [1] it was 22 µM; with DU-145, 25 µM; with MCF7, 36 µM. Further, the INH on Tubulin (Bos taurus) came out at 25 µM.
Regarding `COc1ccc2c(c1)/C(=C/c1cc(-c3ccc4c(c3)OCO4)n[nH]1)C(=O)N2`, the IC50 is 24 µM with A549, 13.5 µM with HeLa [1], 34 µM with DU-145 and 9.8 µM with MCF7. For the same compound, the INH on Tubulin (Bos taurus) was found to be 12 µM.
Turning to `COc1ccc(-c2cc(/C=C3\C(=O)Nc4ccccc43)[nH]n2)cc1OC`, the IC50 turned out to be 29 µM in the assay with A549, 21 µM with HeLa [1], 31 µM with DU-145 and 36 µM in the assay on MCF7. Further, the INH on Tubulin (Bos taurus) came out at 23 µM.
Turning to `COC(=O)Nc1nc2cc(C(=O)c3cccs3)ccc2[nH]1` [NOCODAZOLE], the IC50 was 0.89 µM in the assay with A549, 1.1 µM with HeLa [1], 3.2 µM in the assay with DU-145 and 1.7 µM in the assay with MCF7. Also, the INH on Tubulin (Bos taurus) turned out to be 2.2 µM. Further, the result in the assay filed under Danio rerio was Active.
Turning to `COc1ccc(-c2cc(/C=C3\C(=O)Nc4cc(Cl)ccc43)[nH]n2)cc1`, the IC50 with A549 came out at 3 µM; with HeLa [1] it was 2.4 µM; with DU-145 it was 3 µM; in the assay on MCF7, 3.6 µM. This compound also gave an INH on Tubulin (Bos taurus) of 5.9 µM. The Activity came out at 71.2% in the assay with HeLa [2] and 77.6% in the assay with HeLa [4]. Besides, the result in the assay on HeLa [3] and in the assay filed under Danio rerio was Active.
As to `COc1ccc(-c2cc(/C=C3\C(=O)Nc4ccc([N+](=O)[O-])cc43)[nH]n2)cc1`, the IC50 was determined as 22 µM in the assay on A549, 33 µM with HeLa [1], 26 µM in the assay on DU-145 and 24 µM in the assay with MCF7. The compound also came in with an INH on Tubulin (Bos taurus) of 21 µM.
For the compound `COc1cc(-c2cc(/C=C3\C(=O)Nc4cc(Cl)ccc43)[nH]n2)cc(OC)c1OC`, the IC50 with A549 was determined as 33 µM; in the assay on HeLa [1], 11 µM; with DU-145, 27 µM; in the assay with MCF7 it was 22 µM. For the same compound, the INH at Tubulin (Bos taurus) came to 22.4 µM.
Regarding `COc1ccc(-c2cc(/C=C3\C(=O)Nc4ccc(OC)cc43)[nH]n2)cc1`, the IC50 in the assay with A549 came out at 8 µM; in the assay with HeLa [1], 7.1 µM; in the assay with DU-145 it was 9 µM; in the assay with MCF7, 6 µM. In addition, at Tubulin (Bos taurus), the INH turned out to be 9.2 µM. Moreover, the Activity in the assay with HeLa [2] is on record as 60.19%; in the assay on HeLa [4], 60.38%. In addition, the result in the assay with HeLa [5] was Active.
With `COc1cc(-c2cc(/C=C3\C(=O)Nc4ccc(Cl)cc43)[nH]n2)cc(OC)c1OC`, the IC50 was 27 µM in the assay with A549, 12 µM in the assay with HeLa [1], 21 µM in the assay with DU-145 and 44 µM in the assay with MCF7. For the same compound, the INH on Tubulin (Bos taurus) turned out to be 25.3 µM.
Regarding `COc1ccc(-c2cc(/C=C3\C(=O)Nc4ccc(Cl)cc43)[nH]n2)cc1`, the IC50 was determined as 6 µM in the assay with A549, 5 µM in the assay on HeLa [1], 4 µM in the assay with DU-145 and 9.3 µM in the assay on MCF7. Besides, on Tubulin (Bos taurus), the INH is 8.1 µM. Moreover, the Activity in the assay with HeLa [2] turned out to be 69.01%; in the assay with HeLa [4], 72.75%. For the same compound, the outcome in the assay on HeLa [3] and in the assay filed under Danio rerio was Active.
Regarding `O=C1Nc2ccc(Cl)cc2/C1=C/c1cc(-c2ccc3c(c2)OCO3)n[nH]1`, the IC50 in the assay on A549 is 29 µM; with HeLa [1], 12 µM; with DU-145 it was 24 µM; in the assay with MCF7, 44 µM. The compound further returned an INH on Tubulin (Bos taurus) of 35.3 µM.
Consider `O=C1Nc2cc(Cl)ccc2/C1=C/c1cc(-c2ccc3c(c2)OCO3)n[nH]1`, for which the IC50 in the assay with A549 was found to be 27 µM; with HeLa [1] it was 7.3 µM; in the assay with DU-145 it was 24 µM; in the assay with MCF7, 18 µM. This compound had an INH on Tubulin (Bos taurus) of 14.5 µM.
Regarding `O=C1Nc2ccc(F)cc2/C1=C/c1cc(-c2ccc3c(c2)OCO3)n[nH]1`, the IC50 in the assay on A549 was 26 µM; in the assay with HeLa [1], 32 µM; in the assay with DU-145, 21 µM; in the assay on MCF7, 36 µM. This compound showed an INH on Tubulin (Bos taurus) of 24 µM.
For `COc1cc(-c2cc(/C=C3\C(=O)Nc4ccc([N+](=O)[O-])cc43)[nH]n2)cc(OC)c1OC` the same measures were 22 µM, 30 µM, 20 µM, 16 µM and 15.3 µM.
For `COc1ccc(-c2cc(/C=C3\C(=O)Nc4ccccc43)[nH]n2)cc1`, the IC50 was found to be 14 µM with A549, 18 µM in the assay on HeLa [1], 21 µM with DU-145 and 15 µM in the assay with MCF7. Besides, the INH on Tubulin (Bos taurus) was 38.9 µM. For the same compound, the outcome in the assay filed under Danio rerio was Active.
